Laboratory results as given in US20250136578A1 (Kolm Therapeutics Inc., priority 2023, published 2025).

Target: AR / CBP ternary complex (Homo sapiens, UniProt P10275+Q92793)
Test: Ternary complex formation assay (sandwich ELISA, AR capture, CBP antibody detection) in VCaP cell lysates
Type: cell-based
Details: treated 1.5 hours, rabbit CBP or p300 antibody detection, average, read-out: Average Ternary Complex
Method: Black MaxiSorp plates: coat with 50 μL of mouse 1/50 diluted AR antibody (Monoclonal Antibody (AR 441 from Thermo Fisher); diluted in phosphate buffered saline (PBS). Spin the liquid to the bottom of the wells, if necessary. Incubate overnight at 4° C. Next day, wash 3 times with 200 μL of TBST. Block with 200 μL of blocking buffer (5% BSA in TBST) at room temperature for 2 hours (BSA: A4503 or A2153 from Sigma). Wash plates 3 times with TBST. Plates are ready for lysates Preparation of dimerizer treated lysates
Culture cells in 96 wells at 50K VCaP cells/well for at least 3 days. Plate in 5% Omega charcoal stripped FBS in total volume of 200 uL. Treat with bifunctional for 1.5 hours by adding 1 μL of 200× stock in DMSO. Aspirate media/compound. Add and pipet-to-mix 70 μL of 1× AlphaLisa Lysis Buffer to each well (Perkin Elmer, AlphaLISA SureFire Ultra, diluted in water). Pipet up and down when adding lysis buffer to disrupt cells. Let lysis proceed for 30 min at 4° C.
Incubate for 1 hour at room temperature. Flick out the lysates. Wash 3 times with TBST. Add 75 μL of rabbit CBP or p300 antibody to each well (diluted 1:5000 in blocking buffer (5% BSA in TBST). CBP antibody: (D6C5) Rabbit mAb #7389; p300 antibody: (D8Z4E) Rabbit mAb #86377. Incubate overnight at 4° C. Wash 3 times with 300 uL TBST, each time on shaker for 5-10 min. Prepare goat anti-rabbit antibody conjugated to HRP (1/100K dilution in blocking buffer) Invitrogen Catalog number: 32260. Add 75 μL of HRP-conjugated goat anti-rabbit antibody. Incubate at room temperature for 1 hour. Flick out the HRP-antibody mixture. Wash 7-8 times with TBST, each time on shaker for 10 min. Later washes try to overflow the wells so that no residual HRP remains bound to the sides of the well. Prepare and add 75 uL/well of QuantaRed Enhance Chemifluorescent HRP Substrate solution. Immediately read fluorescence on BMG ClarioStar (ex: 570/em 585), and repeat the read in 5 minutes and 15 minutes.

Sequence of AR / CBP ternary complex (P10275 whole entry): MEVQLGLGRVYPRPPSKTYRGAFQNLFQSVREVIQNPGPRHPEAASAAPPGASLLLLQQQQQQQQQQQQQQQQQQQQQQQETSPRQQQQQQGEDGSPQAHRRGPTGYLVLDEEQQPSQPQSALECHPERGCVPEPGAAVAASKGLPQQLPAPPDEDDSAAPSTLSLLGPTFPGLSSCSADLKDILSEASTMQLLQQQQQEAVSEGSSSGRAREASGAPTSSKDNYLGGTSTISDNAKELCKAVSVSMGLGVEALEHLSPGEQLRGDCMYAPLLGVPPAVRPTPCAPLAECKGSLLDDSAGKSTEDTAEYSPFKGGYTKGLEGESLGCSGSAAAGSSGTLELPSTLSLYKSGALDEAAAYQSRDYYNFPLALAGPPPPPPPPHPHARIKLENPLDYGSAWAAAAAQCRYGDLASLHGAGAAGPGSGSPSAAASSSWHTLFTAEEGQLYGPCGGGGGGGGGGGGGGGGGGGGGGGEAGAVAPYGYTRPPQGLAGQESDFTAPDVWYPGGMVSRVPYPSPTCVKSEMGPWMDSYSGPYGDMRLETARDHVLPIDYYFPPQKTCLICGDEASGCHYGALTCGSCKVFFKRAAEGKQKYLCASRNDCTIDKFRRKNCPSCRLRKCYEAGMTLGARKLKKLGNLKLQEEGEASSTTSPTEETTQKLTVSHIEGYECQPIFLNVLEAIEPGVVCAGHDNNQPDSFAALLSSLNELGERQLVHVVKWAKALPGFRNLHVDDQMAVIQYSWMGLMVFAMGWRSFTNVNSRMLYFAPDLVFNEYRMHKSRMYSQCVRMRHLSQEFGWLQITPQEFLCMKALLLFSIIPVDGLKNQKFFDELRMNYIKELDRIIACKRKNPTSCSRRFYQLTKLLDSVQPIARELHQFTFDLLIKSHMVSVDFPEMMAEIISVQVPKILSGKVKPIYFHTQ
Sequence of AR / CBP ternary complex (Q92793 2-2442): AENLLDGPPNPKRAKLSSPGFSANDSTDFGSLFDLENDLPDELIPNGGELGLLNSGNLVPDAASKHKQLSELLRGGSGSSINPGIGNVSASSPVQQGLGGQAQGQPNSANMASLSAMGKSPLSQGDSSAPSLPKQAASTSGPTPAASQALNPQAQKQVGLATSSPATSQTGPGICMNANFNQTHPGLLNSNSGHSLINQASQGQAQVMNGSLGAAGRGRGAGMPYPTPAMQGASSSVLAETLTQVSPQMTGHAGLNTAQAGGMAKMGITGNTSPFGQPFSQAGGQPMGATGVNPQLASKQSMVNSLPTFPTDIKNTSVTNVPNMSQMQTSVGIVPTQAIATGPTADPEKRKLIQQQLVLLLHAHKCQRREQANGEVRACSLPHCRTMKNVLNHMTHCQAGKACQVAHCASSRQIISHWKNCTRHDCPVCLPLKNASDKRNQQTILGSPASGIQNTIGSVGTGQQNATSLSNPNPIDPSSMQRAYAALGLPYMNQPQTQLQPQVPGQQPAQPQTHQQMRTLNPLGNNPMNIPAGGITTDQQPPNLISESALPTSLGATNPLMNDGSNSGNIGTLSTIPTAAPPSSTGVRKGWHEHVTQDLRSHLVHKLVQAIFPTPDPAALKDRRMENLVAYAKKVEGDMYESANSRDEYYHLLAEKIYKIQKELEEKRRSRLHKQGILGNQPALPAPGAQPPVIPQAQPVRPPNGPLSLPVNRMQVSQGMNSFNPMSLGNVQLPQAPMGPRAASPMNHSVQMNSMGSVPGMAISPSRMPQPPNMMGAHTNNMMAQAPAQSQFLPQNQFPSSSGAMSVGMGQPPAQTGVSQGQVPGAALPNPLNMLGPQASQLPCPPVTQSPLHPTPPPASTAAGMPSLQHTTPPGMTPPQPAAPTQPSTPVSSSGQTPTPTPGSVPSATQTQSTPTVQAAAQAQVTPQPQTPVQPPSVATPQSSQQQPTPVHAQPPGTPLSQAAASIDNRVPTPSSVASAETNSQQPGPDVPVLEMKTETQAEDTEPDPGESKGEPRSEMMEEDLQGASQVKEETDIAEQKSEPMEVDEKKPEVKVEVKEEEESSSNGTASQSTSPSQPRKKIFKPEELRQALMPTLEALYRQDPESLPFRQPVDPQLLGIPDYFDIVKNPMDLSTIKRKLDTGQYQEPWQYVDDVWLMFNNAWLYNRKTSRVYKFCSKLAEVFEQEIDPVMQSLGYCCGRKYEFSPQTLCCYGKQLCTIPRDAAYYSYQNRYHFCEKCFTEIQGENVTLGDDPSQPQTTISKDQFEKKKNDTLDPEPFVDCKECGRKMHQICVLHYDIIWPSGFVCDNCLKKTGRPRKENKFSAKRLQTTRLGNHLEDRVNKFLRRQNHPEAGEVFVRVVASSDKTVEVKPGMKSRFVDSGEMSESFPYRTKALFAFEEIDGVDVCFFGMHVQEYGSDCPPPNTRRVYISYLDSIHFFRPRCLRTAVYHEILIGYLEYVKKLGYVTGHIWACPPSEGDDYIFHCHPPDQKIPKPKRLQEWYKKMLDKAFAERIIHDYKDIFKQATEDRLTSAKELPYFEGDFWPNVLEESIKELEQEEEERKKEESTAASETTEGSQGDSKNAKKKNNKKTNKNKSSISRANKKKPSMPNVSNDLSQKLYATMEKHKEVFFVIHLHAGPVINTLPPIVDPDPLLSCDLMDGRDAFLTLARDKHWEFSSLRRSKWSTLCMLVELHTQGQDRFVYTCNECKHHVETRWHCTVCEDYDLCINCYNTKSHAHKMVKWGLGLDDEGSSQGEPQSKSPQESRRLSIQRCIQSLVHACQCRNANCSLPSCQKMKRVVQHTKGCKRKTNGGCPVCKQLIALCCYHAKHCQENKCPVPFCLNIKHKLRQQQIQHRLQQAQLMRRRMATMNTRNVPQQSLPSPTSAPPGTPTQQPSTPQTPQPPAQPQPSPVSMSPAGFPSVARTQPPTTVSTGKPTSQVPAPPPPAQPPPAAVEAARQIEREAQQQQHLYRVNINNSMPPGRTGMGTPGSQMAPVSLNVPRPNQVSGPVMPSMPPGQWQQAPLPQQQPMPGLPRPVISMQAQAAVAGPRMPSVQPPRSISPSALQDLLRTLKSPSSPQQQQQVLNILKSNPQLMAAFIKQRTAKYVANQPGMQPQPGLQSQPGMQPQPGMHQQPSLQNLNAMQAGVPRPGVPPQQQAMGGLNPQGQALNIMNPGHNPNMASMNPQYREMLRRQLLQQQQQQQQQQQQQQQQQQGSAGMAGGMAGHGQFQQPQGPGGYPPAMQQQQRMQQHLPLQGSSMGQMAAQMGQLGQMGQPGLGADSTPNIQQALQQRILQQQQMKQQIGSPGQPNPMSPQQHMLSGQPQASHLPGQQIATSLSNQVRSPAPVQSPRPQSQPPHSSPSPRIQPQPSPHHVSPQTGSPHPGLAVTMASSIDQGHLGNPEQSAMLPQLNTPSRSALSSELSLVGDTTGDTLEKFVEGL

EC50	SMILES
< 1 nM	CC(=O)N1CCc2c(c(N3CCCc4cc(-c5cnn(C)c5)c(C(F)F)cc43)nn2[C@H]2CCC3(CC2)C[C@H](Oc2ccc(C(=O)N[C@H]4CC[C@H](Oc5ccc(C#N)c(Cl)c5)CC4)nn2)C3)C1 (mixture of isomers) [Compound 235, 6-((7-(5-acetyl-3-(7-(difluoromethyl)-6-(1-methyl-1H-pyrazol-4-yl)-3,4-dihydroquinolin-1(2H)-yl)-4,5,6,7-tetrahydro-1H-pyrazolo[4,3-c]pyridin-1-yl)spiro[3.5]nonan-2-yl)oxy)-N-((1SR,4SR)-4-(3-chloro-4-cyanophenoxy)cyclohexyl)pyridazine-3-carboxamide]
< 1 nM	CC(=O)N1CCc2c(c(N3CCCc4cc(-c5cnn(C)c5)c(C(F)F)cc43)nn2[C@H]2CCC3(CC2)C[C@H](Oc2ccc(C(=O)N[C@H]4CC[C@H](Oc5ccc(C#N)c(Cl)c5)CC4)nn2)C3)C1 (mixture of isomers) [Compound 301, 6-((7-(5-acetyl-3-(7-(difluoromethyl)-6-(1-methyl-1H-pyrazol-4-yl)-3,4-dihydroquinolin-1(2H)-yl)-4,5,6,7-tetrahydro-1H-pyrazolo[4,3-c]pyridin-1-yl)spiro[3.5]nonan-2-yl)oxy)-N-((1SR,4SR)-4-(3-chloro-4-cyanophenoxy)cyclohexyl)pyridazine-3-carboxamide]
< 1 nM	CC(=O)N1CCc2c(c(-c3cccc4cc(-c5cnn(C)c5)ncc34)nn2C2CCN(CC3CCN(c4ncc(C(=O)N[C@H]5CC[C@H](Oc6ccc(C#N)c(Cl)c6)CC5)cn4)CC3)CC2)C1 [Compound 6]
< 1 nM	CC(=O)N1CCc2c(c(N3CCCc4cc(-c5cnn(C)c5)ccc43)nn2C2CCN(CC3CCN(c4ncc(C(=O)N[C@H]5CC[C@H](Oc6ccc(C#N)c(Cl)c6)CC5)cn4)CC3)CC2)C1 [Compound 11, 2-[4-[[4-[5-acetyl-3-[6-(1-methylpyrazol-4-yl)-3,4-dihydro-2H-quinolin-1-yl]-6,7-dihydro-4H-pyrazolo[4,3-c]pyridin-1-yl]-1-piperidyl]methyl]-1-piperidyl]-N-[4-(3-chloro-4-cyano-phenoxy)cyclohexyl]pyrimidine-5-carboxamide]
< 1 nM	CC(=O)N1CCc2c(c(N3CCCc4cc(-c5cnn(C)c5)c(C(F)F)cc43)nn2C2CCN(CC3CCN(c4ncc(C(=O)N[C@H]5CC[C@H](Oc6ccc(C#N)c(Cl)c6)CC5)cn4)CC3)CC2)C1 [Compound 17, 2-[4-[[4-[5-acetyl-3-[7-(difluoromethyl)-6-(1-methylpyrazol-4-yl)-3,4-dihydro-2H-quinolin-1-yl]-6,7-dihydro-4H-pyrazolo[4,3-c]pyridin-1-yl]-1-piperidyl]methyl]-1-piperidyl]-N-[4-(3-chloro-4-cyano-phenoxy)cyclohexyl]pyrimidine-5-carboxamide]
< 1 nM	CC(=O)N1CCc2c(c(-c3cccc4cc(-c5cnn(CCC6CCN(c7ccc(C(=O)N[C@H]8CC[C@H](Oc9ccc(C#N)c(Cl)c9)CC8)nn7)CC6)c5)ncc34)nn2C2CCOCC2)C1 [Compound 24, 6-[4-[2-[4-[8-(5-acetyl-1-tetrahydropyran-4-yl-6,7-dihydro-4H-pyrazolo[4,3-c]pyridin-3-yl)-3-isoquinolyl]pyrazol-1-yl]ethyl]-1-piperidyl]-N-[4-(3-chloro-4-cyano-phenoxy)cyclohexyl]pyridazine-3-carboxamide]
< 1 nM	CC(=O)N1CCc2c(c(-c3cccc4cc(-c5cnn(CCN6CCN(c7ccc(C(=O)N[C@H]8CC[C@H](Oc9ccc(C#N)c(Cl)c9)CC8)nn7)CC6)c5)ncc34)nn2C2CCOCC2)C1 [Compound 29, 6-[4-[2-[4-[8-(5-acetyl-1-tetrahydropyran-4-yl-6,7-dihydro-4H-pyrazolo[4,3-c]pyridin-3-yl)-3-isoquinolyl]pyrazol-1-yl]ethyl]piperazin-1-yl]-N-[4-(3-chloro-4-cyano-phenoxy)cyclohexyl]pyridazine-3-carboxamide]
< 1 nM	CC(=O)N1CCc2c(c(N3CCCc4cc(-c5cnn(C)c5)c(C(F)F)cc43)nn2C2CCN(CC3(F)CCN(c4ccc(C(=O)N[C@H]5CC[C@H](Oc6ccc(C#N)c(Cl)c6)CC5)nn4)CC3)CC2)C1 [Compound 142, 6-[4-[[4-[5-acetyl-3-[7-(difluoromethyl)-6-(1-methylpyrazol-4-yl)-3,4-dihydro-2H-quinolin-1-yl]-6,7-dihydro-4H-pyrazolo[4,3-c]pyridin-1-yl]-1-piperidyl]methyl]-4-fluoro-1-piperidyl]-N-[4-(3-chloro-4-cyano-phenoxy)cyclohexyl]pyridazine-3-carboxamide]
< 1 nM	CC(=O)N1CCc2c(c(N3CCCc4cc(-c5cnn(C)c5)c(C(F)F)cc43)nn2C2CCc3c(cnn3C3CCN(c4ccc(C(=O)N[C@H]5CC[C@H](Oc6ccc(C#N)c(Cl)c6)CC5)nn4)CC3)C2)C1 (stereo partly shown) [Compound 178, 6-[4-[5-[5-acetyl-3-[7-(difluoromethyl)-6-(1-methylpyrazol-4-yl)-3,4-dihydro-2H-quinolin-1-yl]-6,7-dihydro-4H-pyrazolo[4,3-c]pyridin-1-yl]-4,5,6,7-tetrahydroindazol-1-yl]-1-piperidyl]-N-[4-(3-chloro-4-cyano-phenoxy)cyclohexyl]pyridazine-3-carboxamide]
< 1 nM	CC(=O)N1CCc2c(c(N3CCCc4cc(-c5ccc(OC6CC7(CCN(c8ccc(C(=O)N[C@H]9CC[C@H](Oc%10ccc(C#N)c(Cl)c%10)CC9)nn8)CC7)C6)cc5)c(C(F)F)cc43)nn2C2CCOCC2)C1 [Compound 203, 6-[2-[4-[1-(5-acetyl-1-tetrahydropyran-4-yl-6,7-dihydro-4H-pyrazolo[4,3-c]pyridin-3-yl)-7-(difluoromethyl)-3,4-dihydro-2H-quinolin-6-yl]phenoxy]-7-azaspiro[3.5]nonan-7-yl]-N-[4-(3-chloro-4-cyano-phenoxy)cyclohexyl]pyridazine-3-carboxamide]
< 1 nM	CC(=O)N1CCc2c(c(N3CCCc4cc(-c5ccc(N6CCC(N7CCN(c8ccc(C(=O)N[C@H]9CC[C@H](Oc%10ccc(C#N)c(Cl)c%10)CC9)nn8)CC7)CC6)nc5)c(C(F)F)cc43)nn2C2CCOCC2)C1 [Compound 215]
< 1 nM	CC(=O)N1CCc2c(c(N3CCCc4cc(-c5cnn(C)c5)c(C(F)F)cc43)nn2C2CCN(CC3CCN(c4nnc(C(=O)N[C@H]5CC[C@H](Oc6ccc(C#N)c(Cl)c6)CC5)s4)CC3)CC2)C1 [Compound 225]
< 1 nM	CC(=O)N1CCc2c(c(N3CCCc4cc(-c5cnn(C)c5)c(C(F)F)cc43)nn2C2CCN(C(=O)C3CCN(c4nnc(C(=O)N[C@H]5CC[C@H](Oc6ccc(C#N)c(Cl)c6)CC5)s4)CC3)CC2)C1 [Compound 226, 5-[4-[4-[5-acetyl-3-[7-(difluoromethyl)-6-(1-methylpyrazol-4-yl)-3,4-dihydro-2H-quinolin-1-yl]-6,7-dihydro-4H-pyrazolo[4,3-c]pyridin-1-yl]piperidine-1-carbonyl]-1-piperidyl]-N-[4-(3-chloro-4-cyano-phenoxy)cyclohexyl]-1,3,4-thiadiazole-2-carboxamide]
< 1 nM	CC(=O)N1CCc2c(c(N3CCCc4cc(-c5cnn(C)c5)c(C(F)F)cc43)nn2C2CCN(C3CCC4(C3)CN(c3ccc(C(=O)N[C@H]5CC[C@H](Oc6ccc(C#N)c(Cl)c6)CC5)nn3)C4)CC2)C1 (stereo partly shown) [Compound 227, 6-[6-[4-[5-acetyl-3-[7-(difluoromethyl)-6-(1-methylpyrazol-4-yl)-3,4-dihydro-2H-quinolin-1-yl]-6,7-dihydro-4H-pyrazolo[4,3-c]pyridin-1-yl]-1-piperidyl]-2-azaspiro[3.4]octan-2-yl]-N-[4-(3-chloro-4-cyano-phenoxy)cyclohexyl]pyridazine-3-carboxamide]
< 1 nM	CC(=O)N1CCc2c(c(N3CCCc4cc(-c5cnn(C)c5)c(C(F)F)cc43)nn2C2CCN(C3CC4(CCN(c5ccc(C(=O)N[C@H]6CC[C@H](Oc7ccc(C#N)c(Cl)c7)CC6)nn5)C4)C3)CC2)C1 (stereo partly shown) [Compound 228, 6-[2-[4-[5-acetyl-3-[7-(difluoromethyl)-6-(1-methylpyrazol-4-yl)-3,4-dihydro-2H-quinolin-1-yl]-6,7-dihydro-4H-pyrazolo[4,3-c]pyridin-1-yl]-1-piperidyl]-6-azaspiro [3.4]octan-6-yl]-N-[4-(3-chloro-4-cyano-phenoxy)cyclohexyl] pyridazine-3-carboxamide]
1 to 10 nM	CC(=O)N1CCc2c(c(N3CCCc4cc(-c5cscn5)c(C(F)F)cc43)nn2C2CCN([C@H]3CCCN(c4ccc(C(=O)N[C@H]5CC[C@H](Oc6ccc(C#N)c(Cl)c6)CC5)nn4)C3)CC2)C1 [Compound 260, 6-[(3S)-3-[4-[5-acetyl-3-[7-(difluoromethyl)-6-thiazol-4-yl-3,4-dihydro-2H-quinolin-1-yl]-6,7-dihydro-4H-pyrazolo[4,3-c]pyridin-1-yl]-1-piperidyl]-1-piperidyl]-N-[4-(3-chloro-4-cyano-phenoxy)cyclohexyl]pyridazine-3-carboxamide]
